Measurements taken from patent US20220402935A1, “HETEROCYCLIC COMPOUND” (FIMECS, INC., priority 2019, published 2022).
Counter-ions that a name gives are not always drawn.

Legend:
[1] = target: T1, IRAK-M (Homo sapiens, UniProt Q9Y616); experiment: IRAK-M binding inhibitory activity (KINOMEscan active site-dependent competitive assay); design: purchased Eurofins Discover X; conditions: for IC50: second symbol of cell, read-out: IRAK-M binding inhibition IC50 value; for remaining binding at 1 µM: concentration of the test compound 1 μM, first symbol of cell, read-out: IRAK-M binding inhibition activity % Ctrl
T1 sequence (Q9Y616 1-596): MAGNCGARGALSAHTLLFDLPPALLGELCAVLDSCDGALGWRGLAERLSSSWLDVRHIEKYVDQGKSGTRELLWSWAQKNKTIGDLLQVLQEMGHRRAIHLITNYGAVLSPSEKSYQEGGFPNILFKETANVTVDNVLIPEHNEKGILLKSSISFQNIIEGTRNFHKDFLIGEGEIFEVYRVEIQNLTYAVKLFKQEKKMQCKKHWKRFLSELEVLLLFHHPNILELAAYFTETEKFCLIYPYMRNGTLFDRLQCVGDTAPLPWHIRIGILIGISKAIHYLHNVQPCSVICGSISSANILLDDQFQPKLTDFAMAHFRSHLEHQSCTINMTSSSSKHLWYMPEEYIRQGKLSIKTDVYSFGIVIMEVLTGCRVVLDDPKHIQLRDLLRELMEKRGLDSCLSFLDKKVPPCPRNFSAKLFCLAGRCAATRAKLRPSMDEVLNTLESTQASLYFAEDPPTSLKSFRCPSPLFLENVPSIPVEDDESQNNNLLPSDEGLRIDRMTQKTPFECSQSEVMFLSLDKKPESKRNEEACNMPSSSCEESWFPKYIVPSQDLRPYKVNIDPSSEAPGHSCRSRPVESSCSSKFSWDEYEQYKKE
Outline: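 Readout given as % Ctrl, with DMSO as 100% and a control compound as 0%, scaling the test compound signal between them. Binding to human IRAK-M was assessed by KINOMEscan competition at the kinase active site.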

[2] = target: T2, human XIAP_BIR3 domain purified protein (Homo sapiens, UniProt P98170); experiment: XIAP binding inhibitory activity (HTRF, b-Smac ligand); conditions: for IC50: second symbol of cell, read-out: XIAP binding inhibition IC50 value; for inhibition at 3 µM: concentration of the test compound 3 μM, first symbol of cell, read-out: XIAP binding inhibition rate
T2 construct: purchased R & D
T2 sequence (P98170 252-356 limits assumed): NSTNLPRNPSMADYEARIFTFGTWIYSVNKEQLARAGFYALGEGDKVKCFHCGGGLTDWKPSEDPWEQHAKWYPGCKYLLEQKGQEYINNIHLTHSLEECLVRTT
Procedure: Human XIAP binding inhibitory activity was measured by the Homogeneous Time Resolved Fluorescence (HTRF) method with using commercially available human XIAP_BIR3 domain purified protein (R & D) and as a ligand a Smac N-terminal peptide (AVPIAQK (SEQ ID NO: 1)) (hereinafter referred to as “b-Smac”; Peptide Research Laboratories, Inc.) biotinylated at the C-terminus according to a conventional method.
The HTRF method will be described in detail below.
The test compound diluted with a reaction buffer (25 mM HEPES Buffer containing 100 mM NaCl, 0.1% BSA, and 0.1% triton X-100, pH 7.5) was added to a 384-well white shallow bottom plate (Greiner 784076) at 1 μL/well and flash centrifuged for 30 seconds. Subsequently, human XIAP_BIR3 domain purified protein was diluted with the reaction buffer to obtain a 90 nM sample diluent, and the resultant sample diluent was added to the above-mentioned white superficial plate at 4.5 μL/well and flash centrifuged for 30 seconds. Subsequently, b-Smac diluted to 90 nM with the reaction buffer was added to the above-mentioned white superficial plat at 4.5 μL/well and flash centrifuged for 30 seconds. A mixed solution of Anti-6 HIS-Cryptate (Eu^3+ Cryptate-conjugated mouse monoclonal antibody anti-6 Histidine; cisbio) and Streptavidin-XL^eat (Highgrade XL665-conjugated streptavidin; cisbio) both diluted 100-fold with HTRF detection buffer (cisbio) at a volume ratio of 1:1 was added to the above white superficial plate at 10 μL/well. After flash centrifuging the white shallow bottom plate for 30 seconds, the white shallow bottom plate was left at room temperature for 4 hours or more in the dark. The white superficial plate after being left was subjected to fluorescence intensity measurement (excitation wavelength: 320 nm, fluorescence wavelength: 665 nm and 615 nm) by EnVision (Perkin Elmer). The binding inhibition rate (%) was calculated based on the HTRF ratio in the presence of the test compound to the HTRF ratio in the absence of the test compound (fluorescence intensity at 665 nm/fluorescence intensity at 615 nm).
The XIAP binding inhibition rate (%) of test compounds was evaluated.

| Compound | IC50 [1] [nM] | IC50 [2] [nM] | remaining binding at 1 µM [1] [%] | inhibition at 3 µM [2] [%] |
| --- | --- | --- | --- | --- |
| C[C@@H]1CN(CC(=O)N2CCN(C(=O)c3cc4cc(F)c(F)cc4n3C)C[C@H]2C)[C@@H](COCCOCCOCCOc2cc(CN3CCC(Oc4ccnc5ccsc45)CC3)on2)CN1 [Example 17, 1-((R)-4-(5,6-Difluoro-1-methyl-1H-indole-2-carbonyl)-2-methylpiperazin-1-yl)-2-((2R,5R)-5-methyl-2-((2-(2-(2-((5-((4-(thieno[3,2-b]pyridin-7-yloxy)piperidin-1-yl)methyl)isoxazol-3-yl)oxy)ethoxy)ethoxy)ethoxy)methyl)piperazin-1-yl)ethan-1-one hydrochloride] | 300 to 1000 | < 300 | – | – |
| Cc1cc2ccc(C(=O)N3CCN(C(=O)CN4C[C@@H](C)NC[C@@H]4COCCOCCOCCOc4cc(CN5CCC(Oc6ccnc7ccsc67)CC5)on4)CC3)cn2c1 [Example 18, 2-((2R,5R)-5-methyl-2-((2-(2-(2-((5-((4-(thieno[3,2-b]pyridin-7-yloxy)piperidin-1-yl)methyl)isoxazol-3-yl)oxy)ethoxy)ethoxy)ethoxy)methyl)piperazin-1-yl)-1-(4-(2-methylindolizine-6-carbonyl)piperazin-1-yl)ethan-1-one] | 300 to 1000 | < 300 | – | – |
| C[C@@H]1CN(CC(=O)N2CCN(C(=O)c3cc4cc(F)c(F)cc4n3C)C[C@H]2C)[C@@H](COCCOCCOCCOCCOc2cc(CN3CCC(Oc4ccnc5ccsc45)CC3)on2)CN1 [Example 19, 1-((R)-4-(5,6-difluoro-1-methyl-1H-indole-2-carbonyl)-2-methylpiperazin-1-yl)-2-((2R,5R)-5-methyl-2-(13-((5-((4-(thieno[3,2-b]pyridin-7-yloxy)piperidin-1-yl)methyl)isoxazol-3-yl)oxy)-2,5,8,11-tetraoxatridecyl)piperazin-1-yl)ethan-1-one] | 300 to 1000 | 300 to 3000 | – | – |
| C[C@@H]1CN(CC(=O)N2CCN(C(=O)c3cc4cc(F)c(F)cc4n3C)C[C@H]2C)[C@@H](COCCOCCOc2cc(CN3CCC(Oc4ccnc5ccsc45)CC3)on2)CN1 [Example 20, 1-((R)-4-(5,6-difluoro-1-methyl-1H-indole-2-carbonyl)-2-methylpiperazin-1-yl)-2-((2R,5R)-5-methyl-2-((2-(2-((5-((4-(thieno[3,2-b]pyridin-7-yloxy)piperidin-1-yl)methyl)isoxazol-3-yl)oxy)ethoxy)ethoxy)methyl)piperazin-1-yl)ethan-1-one] | – | 300 to 3000 | 25 to 50 | – |
| CN[C@@H](C)C(=O)N[C@H](C(=O)N1CCN(C(=O)c2c(OCCOCCOCCOc3cc(CN4CCC(Oc5ccnc6ccsc56)CC4)on3)c3cc(F)c(F)cc3n2C)CC1)C1CCCCC1 [Example 21, (S)-N-((S)-1-Cyclohexyl-2-(4-(5,6-difluoro-1-methyl-3-(2-(2-(2-((5-((4-(thieno[3,2-b]pyridin-7-yloxy)piperidin-1-yl)methyl)isoxazol-3-yl)oxy)ethoxy)ethoxy)ethoxy)-1H-indole-2-carbonyl)piperazin-1-yl)-2-oxoethyl)-2-(methylamino)propanamide hydrochloride] | – | – | 25 to 50 | 25 to 50 |
| CN[C@@H](C)C(=O)N[C@H](C(=O)N1CCN(C(=O)c2c(OCCOCCOc3cc(CN4CCC(Oc5ccnc6ccsc56)CC4)on3)c3cc(F)c(F)cc3n2C)CC1)C1CCCCC1 [Example 22, (S)-N-((S)-1-cyclohexyl-2-(4-(5,6-difluoro-1-methyl-3-(2-(2-((5-((4-(thieno[3,2-b]pyridin-7-yloxy)piperidin-1-yl)methyl)isoxazol-3-yl)oxy)ethoxy)ethoxy)-1H-indole-2-carbonyl)piperazin-1-yl)-2-oxoethyl)-2-(methylamino)propanamide] | – | – | 25 to 50 | 25 to 50 |
| CN[C@@H](C)C(=O)N[C@H](C(=O)N1CCN(C(=O)c2c(OCCOCCOCCOCCOc3cc(CN4CCC(Oc5ccnc6ccsc56)CC4)on3)c3cc(F)c(F)cc3n2C)CC1)C1CCCCC1 [Example 23, (S)-N-((S)-1-cyclohexyl-2-(4-(5,6-difluoro-1-methyl-3-(2-(2-(2-(2-((5-((4-(thieno[3,2-b]pyridin-7-yloxy)piperidin-1-yl)methyl)isoxazol-3-yl)oxy)ethoxy)ethoxy)ethoxy)ethoxy)-1H-indole-2-carbonyl)piperazin-1-yl)-2-oxoethyl)-2-(methylamino)propanamide] | – | – | 25 to 50 | 25 to 50 |
| CN[C@@H](C)C(=O)N[C@H](C(=O)N1CCN(C(=O)c2cc3cc(F)c(F)cc3n2CC(=O)N2CCC[C@@H]2COc2cc(CN3CCC(Oc4ccnc5ccsc45)CC3)on2)CC1)C1CCCCC1 [Example 31, (S)-N-((S)-1-cyclohexyl-2-(4-(5,6-difluoro-1-(2-oxo-2-((R)-2-(((5-((4-(thieno[3,2-b]pyridin-7-yloxy)piperidin-1-yl)methyl)isoxazol-3-yl)oxy)methyl)pyrrolidin-1-yl)ethyl)-1H-indole-2-carbonyl)piperazin-1-yl)-2-oxoethyl)-2-(methylamino)propanamide] | – | – | 25 to 50 | 25 to 50 |
| CN[C@@H](C)C(=O)N[C@H](C(=O)N1CCN(C(=O)c2cc3cc(F)ccc3n2CC(=O)N2C[C@@H](O)C[C@H]2COc2cc(CN3CCC(Oc4ccnc5ccsc45)CC3)on2)[C@@H](C)C1)C1CCCCC1 [Example 42, (S)-N-((S)-1-cyclohexyl-2-((S)-4-(5-fluoro-1-(2-((2S,4S)-4-hydroxy-2-(((5-((4-(thieno[3,2-b]pyridin-7-yloxy)piperidin-1-yl)methyl)isoxazol-3-yl)oxy)methyl)pyrrolidin-1-yl)-2-oxoethyl)-1H-indole-2-carbonyl)-3-methylpiperazin-1-yl)-2-oxoethyl)-2-(methylamino)propanamide] | 100 to 300 | – | – | > 25 |
| CN[C@@H](C)C(=O)N[C@H](C(=O)N1CCN(C(=O)c2cc3cc(F)c(F)cc3n2CC(=O)N2CCOC[C@@H]2COc2cc(CN3CCC(Oc4ccnc5ccsc45)CC3)on2)CC1)C1CCCCC1 [Example 45, (S)-N-((S)-1-cyclohexyl-2-(4-(5,6-difluoro-1-(2-oxo-2-((R)-3-(((5-((4-(thieno[3,2-b]pyridin-7-yloxy)piperidin-1-yl)methyl)isoxazol-3-yl)oxy)methyl)morpholino)ethyl)-1H-indole-2-carbonyl)piperazin-1-yl)-2-oxoethyl)-2-(methylamino)propanamide] | – | 3000 to 30000 | 25 to 50 | – |
| CN[C@@H](C)C(=O)N[C@H](C(=O)N1CCN(C(=O)c2cc3cc(F)ccc3n2CC(=O)N2CCOC[C@@H]2COc2cc(CN3CCC(Oc4ccnc5ccsc45)CC3)on2)[C@@H](C)C1)C1CCCCC1 [Example 46, (S)-N-((S)-1-cyclohexyl-2-((S)-4-(5-fluoro-1-(2-oxo-2-((R)-3-(((5-((4-(thieno[3,2-b]pyridin-7-yloxy)piperidin-1-yl)methyl)isoxazol-3-yl)oxy)methyl)morpholino)ethyl)-1H-indole-2-carbonyl)-3-methylpiperazin-1-yl)-2-oxoethyl)-2-(methylamino)propanamide] | 100 to 300 | – | – | > 25 |
